Test results reported in publication PMC10487970, “Exploring the Impact of Head Group Modifications on the Anticancer Activities of Fatty-Acid-like Platinum(IV) Prodrugs: A Structure–Activity Relationship Study” (International Journal of Molecular Sciences, 2023).

Tests used:
[1] = system: MDA-MB-231 breast cancer cells; assay: MTT cytotoxicity assay, MDA-MB-231; format: cell-based, human; conditions: 24 h treatment, triple-negative MDA-MB-231
Description: (§1) Cytotoxicity profiles of FALP derivatives with various head groups . The in vitro anticancer activity of the Pt(IV) prodrugs (1–9) was assessed using the 3-(4,5-dimethylthiazol-2-yl)-2,5-diphenyltetrazolium bromide (MTT) assay. This study utilized two human cancer cell lines, namely A2780cis and MDA-MB-231. A2780cis is an ovarian cancer cell line known for its resistance to conventional platinum chemotherapy, making it a formidable challenge to treat. On the other hand, MDA-MB-231 represents a triple-negative breast cancer cell line, which is currently recognized as one of the difficult-to-treat cancer types. The cells were treated with 1–9 or cisplatin for 24 h, and the cell viability was evaluated. The IC50 values, which represent the concentration of the drug required to inhibit the growth of cells by 50%, are reported in the table in Figure 1B. […] Overall, the head group modifications of FALPs result in an alternation of therapeutic effects, which is a promising way to fine-tune the anticancer activity of this class of metallodrugs.
(§2) Cell culture. A2780cis cell lines were purchased from Sigma-Aldrich and cultured in RPMI 1640 with L-glutamine (Corning, New York, NY, USA) supplemented with 10% FBS (Atlanta Biologicals, USA) and 1% penicillin-streptomycin (Corning). The MDA-MB-231 cell line was obtained via American Type Culture Collection, and cultured in DMEM 1 g/L glucose, with L-glutamine and sodium pyruvate (Corning) supplemented with 10% FBS and 1% penicillin-streptomycin (Corning). All cell lines were cultured at 37 °C under an atmosphere containing 5% CO2. Cells were passaged upon reaching 80–90% confluence via trypsinization and split in a 1:5 ratio.
(§3) MTT assays. Cytotoxicity profiles of compounds 1–9 and cisplatin against different cell lines (A2780cis and MDA-MB-231) were evaluated using the MTT assays. A volume of 100 μL of a RPMI or DMEM containing 8 × 10^4 cells/mL was seeded in 96-well plates. The plates were incubated for 24 h at 37 °C with 5% CO2 to allow for adherence of cells. A volume of 50 μL of RPMI or DMEM with various concentrations of cisplatin or compounds 1–9 were added to each well of the microplates. The Pt concentrations were determined via GFAAS. After 24 h, a volume of 30 μL of MTT (5.0 mg/mL in PBS, Alfa Aesar, Haverhill, MA, USA) was added to each well of the microplates. After 24 h, the medium was aspirated, and 200 μL of DMSO was added to each well. The plates were shaken gently on a shaker at r.t. for 10 min. Then, the absorbance of purple formazan was recorded at 562 nm with a BioTek ELx800 plate reader. IC50 values were determined using Origin software v7.0. All experiments were performed in triplicate.

[2] = system: A2780cis ovarian cancer cells; assay: MTT cytotoxicity assay, A2780cis; format: cell-based, human; conditions: 24 h treatment, cisplatin-resistant A2780cis
Description: as §1, §2, §3

[3] = system: mitochondrial ROS in A2780cis cells; assay: Flow cytometric analysis of MitoSOX (mitochondrial ROS); format: cell-based, human; conditions: [Pt] = 10 μM, 24 h, control 41.1%
Description: (§4) Cellular Responses of FALP derivatives with head groups of different hydrophobicity. Based on the observation that hydrophilic head group modifications lead to increased intracellular Pt levels, we formulated the hypothesis that such modifications would result in greater mitochondrial and DNA damage, as well as increased apoptosis. MitoSOX was utilized to assess the levels of mitochondrial ROS, while the γH2AX levels were analyzed to determine DNA damage. As mitochondrial and DNA damage are known to promote apoptosis, Annexin V/PI assays were also conducted to examine the apoptotic effects. A flow cytometric analysis was used to evaluate the mitochondrial ROS, γH2AX, and apoptosis in the cancer cells treated with FALPs (2 and 7) in the experiments. […] Based on the results, it can be inferred that the FALP derivative (2) with a hydrophilic head group modification induces mitochondrial and DNA damage as well as apoptosis more effectively than the one (7) with a hydrophobic modification.
Flow cytometric analysis of MitoSOX. A2780cis cells were seeded in 6-well plate at a concentration of 6 × 10^4 cells/mL and incubated overnight. […] The cells were then re-suspended in PBS with 0.5% BSA to reach 10^6 cells/mL and analyzed with BD Accuri C6 flow cytometer using FL-2 channel, and data were processed with FlowJo v10.

A2780cis cells [4] = assay: GFAAS analysis of cellular platinum contents; format: cell-based, human; conditions: [Pt] = 1 μM, 24 h
From the text: (§5) Cell entry and mitochondrial accumulation of FALP derivatives with head groups of different hydrophobicities. Our next objective was to gain a more detailed understanding of how modifications to the head group of FALPs affect their anticancer activities through hydrophobicity. Cellular uptake is widely recognized as a critical factor in the activity of metallodrugs. The influence of hydrophobicity on the cellular uptake of therapeutic molecules has been widely acknowledged, with an increase in hydrophobicity typically promoting cell entry. To this end, we conducted a graphite furnace atomic absorption spectroscopic (GFAAS) analysis of the cellular uptake for FALPs with various head group modifications, including 2 and 7. […] We previously discovered that mitochondria play significant roles in the mechanism of action of FALPs, so we further investigated how the hydrophobicity of the head group modifications affects the mitochondrial accumulation of FALPs. […] In summary, the introduction of a hydrophilic head group in FALPs promotes cell entry and mitochondrial accumulation.
GFAAS analysis of cellular platinum contents in A2780cis cells. […] The remaining live cells were harvested via trypsinization and counted. […] The Pt contents in the cells were analyzed via GFAAS. […]

[5] = GFAAS analysis of Log P values (H2O:octanol); format: physicochemical; conditions: H2O:octanol 1:1, Pt content of each phase by GFAAS; whole compound
Description: The samples were first dissolved with DMSO to create 200 µM stocks. From these stocks, 50 µL was added to a H2O:Octanol mixture with a 1:1 volume ratio. This mixture was vortexed for 5 min and subsequently centrifuged for 3 min at 3000 rpm. Following centrifugation, the H2O and octanol layers were isolated for analysis. The Pt content in each phase was quantified using GFAAS to calculate the Log P value.

[6] = system: mitochondria of A2780cis cells; assay: Measurement of mitochondrial platinum contents; format: cell-based, human; conditions: [Pt] = 1 μM, 24 h, isolated mitochondria, GFAAS
From the text: as §5
Measurements of mitochondrial platinum contents in A2780cis cells. […] Next, the wells were washed with PBS (1 mL) and harvested via trypsinization (1 mL) and counted. […] Next, the fractions were diluted 4× in water and the platinum content was analyzed using GFAAS. […]

A2780cis cells [7] = assay: LIVE/DEAD cell viability imaging assay; format: cell-based, human; conditions: [Pt] = 1 μM, 24 h
Description: LIVE/DEAD cell viability assays. […] Before the assay, the cells were washed with 1 mL PBS and 1 mL dye-free RPMI to remove serum esterase activity that is generally present in serum-supplemented growth media. A 100 μL volume of LIVE/DEAD working solution (formed by mixing 2 µM of calcein AM and 2 μM ethidium homodimer-1 in PBS) was carefully added to the disk, which was then incubated at r.t. for 30 min. Images were acquired using an Olympus IX70 inverted epifluorescence microscope equipped with a digital CCD camera (QImaging, Surrey, BC, Canada). Images were processed, and intensities were quantified with ImageJ software (NIH).

A2780cis cells [8] = assay: Flow cytometric analysis of apoptosis (Annexin V/PI); format: cell-based, human; conditions: [Pt] = 0.5 μM, 48 h
Description: as §4
Flow cytometric analysis of apoptosis. A2780cis cells were seeded in a 6-well plate at a concentration of 3 × 10^5 cells/well. Cells were then incubated at 37 °C 5% CO2 for 24 h. […] Both live and dead cells were collected, resuspended in 1mL PBS, and counted. […] Cells were then analyzed with FL-1 and FL-3 channels on a BD Accuri C6 flow cytometer and data were processed with FlowJo.

Row | Compound | IC50 [1] | IC50 [2] | MitoSOX (mitochondrial ROS, flow cytometry) [3] | Cellular uptake (cellular Pt content) (A2780cis cells [4]) | Log P determined via GFAAS [5] | Mitochondrial Pt content [6] | Live/dead cell imaging result (A2780cis cells [7]) | Apoptosis, Annexin V/PI plot, upper right quadrant (late stages of apoptosis) (A2780cis cells [8])
1 | CCCCCCCCCCCCCCCCNC(=O)[O][Pt]([NH2])([NH2])([Cl])([Cl])[O]C(=O)CCC(=O)NC12CC3CC(CC(C3)C1)C2 [Compound 8] | 6.09 ± 0.3 µM | 5.07 ± 0.71 µM | – | – | – | – | – | –
2 | CCCCCCCCCCCCCCCCNC(=O)CCC(=O)[O][Pt]([NH2])([NH2])([Cl])([Cl])[O]C(=O)NCC(=O)OCC [Compound 9] | 1.42 ± 0.07 µM | 0.4 ± 0.01 µM | – | – | – | – | – | –
3 | CCCCCCCCCCCCCCCCNC(=O)[O][Pt]([NH2])([NH2])([Cl])([Cl])[O]C(=O)CCC(=O)NCC(=O)OCC [Compound 5] | 5.22 ± 1.03 µM | 0.39 ± 0.08 µM | – | – | – | – | – | –
4 | N.N.[Cl][Pt][Cl] [Cisplatin, cisplatin, reference compound] | 92 ± 8 µM | 109 ± 13.5 µM | insignificant change | – | – | – | – | –
5 | CCCCCCCCCCCCCCCCNC(=O)[O][Pt]([NH2])([NH2])([Cl])([Cl])[O]C(=O)CCC(=O)NCCCCCC [Compound 7] | 7.05 ± 0.8 µM | 3.75 ± 0.47 µM | – | 60.03 ± 8.01 pmol Pt/million cells | 2.57 | 11.72 ± 2.76 pmol Pt/million cells | ineffective | 3.58%
6 | CCCCCCCCCCCCCCCCNC(=O)[O][Pt]([NH2])([NH2])([Cl])([Cl])[O]C(=O)CCC(=O)NCC#N [Compound 4] | 1.63 ± 0.12 µM | 0.41 ± 0.05 µM | – | – | – | – | – | –
7 | CCCCCCCCCCCCCCCCNC(=O)[O][Pt]([NH2])([NH2])([Cl])([Cl])[O]C(=O)CCC(=O)NCCC [Compound 6] | 1.5 ± 0.4 µM | 1.12 ± 0.07 µM | – | – | – | – | – | –
8 | CCCCCCCCCCCCCCCCNC(=O)[O][Pt]([NH2])([NH2])([Cl])([Cl])[O]C(=O)CCC(=O)NCCOC [Compound 3] | 1.9 ± 0.3 µM | 0.7 ± 0.04 µM | – | – | – | – | – | –
9 | CCCCCCCCCCCCCCCCNC(=O)[O][Pt]([Cl])([Cl])[O]C(=O)CCC(=O)O.N.N [Compound 1] | 6.3 ± 0.4 µM | 1 ± 0.06 µM | – | – | – | – | – | –
10 | CCCCCCCCCCCCCCCCNC(=O)[O][Pt]([NH2])([NH2])([Cl])([Cl])[O]C(=O)CCC(=O)NCCOCCO [Compound 2] | 0.76 ± 0.03 µM | 0.3 ± 0.06 µM | – | 496.6 ± 16.09 pmol Pt/million cells | 1.97 | 31.7 ± 5.1 pmol Pt/million cells | effectively eliminated all drug-resistant A2780cis ovarian cancer cells | 23.3%
